Key:
hTLR9 = biological target: T1, hTLR9 (Homo sapiens, UniProt Q9NR96); assay: Human TLR antagonist screening, NF-κB SEAP reporter in HEK293 cells; type: cell-based; details: antagonist mode, test article 1 μM, +ODN 2006 500 ng/ml; No Sample 7, Control− 1
T1 construct: expressed in transfected cells; host or cells: HEK293
T1 sequence (Q9NR96 26-1032): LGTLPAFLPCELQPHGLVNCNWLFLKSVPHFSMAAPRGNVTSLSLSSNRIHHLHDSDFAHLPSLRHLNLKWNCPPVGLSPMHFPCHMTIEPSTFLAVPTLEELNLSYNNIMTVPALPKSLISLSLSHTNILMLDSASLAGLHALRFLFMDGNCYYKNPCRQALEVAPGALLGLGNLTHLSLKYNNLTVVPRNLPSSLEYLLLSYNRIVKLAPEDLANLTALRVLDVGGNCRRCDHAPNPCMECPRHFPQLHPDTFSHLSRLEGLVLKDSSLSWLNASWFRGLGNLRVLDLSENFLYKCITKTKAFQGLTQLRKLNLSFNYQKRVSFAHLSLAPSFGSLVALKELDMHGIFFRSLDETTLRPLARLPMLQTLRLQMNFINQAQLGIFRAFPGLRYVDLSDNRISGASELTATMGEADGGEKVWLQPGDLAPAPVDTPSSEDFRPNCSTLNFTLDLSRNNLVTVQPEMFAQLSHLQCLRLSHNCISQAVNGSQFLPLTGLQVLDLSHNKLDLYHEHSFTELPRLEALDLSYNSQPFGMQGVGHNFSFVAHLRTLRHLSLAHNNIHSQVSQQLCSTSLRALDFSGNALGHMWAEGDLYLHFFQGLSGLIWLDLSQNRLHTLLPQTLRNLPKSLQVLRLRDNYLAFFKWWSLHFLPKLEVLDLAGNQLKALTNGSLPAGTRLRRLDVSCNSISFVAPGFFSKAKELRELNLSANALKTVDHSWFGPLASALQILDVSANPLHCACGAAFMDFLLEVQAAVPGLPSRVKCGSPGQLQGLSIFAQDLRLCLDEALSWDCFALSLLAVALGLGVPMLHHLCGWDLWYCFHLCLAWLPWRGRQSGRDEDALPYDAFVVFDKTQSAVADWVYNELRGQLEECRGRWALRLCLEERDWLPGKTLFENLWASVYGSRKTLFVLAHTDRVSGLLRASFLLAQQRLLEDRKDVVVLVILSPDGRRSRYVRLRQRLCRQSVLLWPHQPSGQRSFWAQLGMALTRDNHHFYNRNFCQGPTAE
Method: (§1) Toll-Like Receptor (TLR), NOD-Like Receptor (NLR) and C-Type Lectin Receptor (CLR) stimulation were tested by assessing NF-κB activation in HEK293 cells expressing a given TLR, NLR or CLR. The activity of the test articles was tested at one concentration and compared to control ligands. These steps were performed in triplicate. hTLR9: CpG ODN 2006 at 1 μg/mL Antagonist: 500 ng/mL. In a 96-well plate (200 μL total volume) containing the appropriate cells (50,000-75,000 cells/well), 20 μL of the test article or the positive control ligand was added to the wells. For the antagonist assay, the test article was incubated with the cells, at 37° C. with 5% CO2, for 30 minutes prior to the addition of the positive control ligand to the wells. The media added to the wells was designed for the detection of NF-κB induced SEAP expression. After a 16-24 hr incubation the optical density (OD) was read at 650 nm on a Molecular Devices SpectraMax 340PC absorbance detector. Fold induction (ratio of average induced value to average non-induced value) was determined for each TLR, NOD1, NOD2, Dectin-1a, Dectin-1b.

Human TLR4 = biological target: T2, Human TLR4 (Homo sapiens, UniProt O00206+Q9Y6Y9); assay: as above; type: cell-based; details: antagonist mode, test article 1 μM, +LPS-EK 10 ng/mL, No Sample 14, Control− 1
T2 construct: expressed in transfected cells; host or cells: HEK293
Method: as §1, with “hTLR4: […]” for “hTLR9: CpG ODN 2006 at 1 μg/mL Antagonist: 500 ng/mL.”

T2 sequence (O00206 24-839): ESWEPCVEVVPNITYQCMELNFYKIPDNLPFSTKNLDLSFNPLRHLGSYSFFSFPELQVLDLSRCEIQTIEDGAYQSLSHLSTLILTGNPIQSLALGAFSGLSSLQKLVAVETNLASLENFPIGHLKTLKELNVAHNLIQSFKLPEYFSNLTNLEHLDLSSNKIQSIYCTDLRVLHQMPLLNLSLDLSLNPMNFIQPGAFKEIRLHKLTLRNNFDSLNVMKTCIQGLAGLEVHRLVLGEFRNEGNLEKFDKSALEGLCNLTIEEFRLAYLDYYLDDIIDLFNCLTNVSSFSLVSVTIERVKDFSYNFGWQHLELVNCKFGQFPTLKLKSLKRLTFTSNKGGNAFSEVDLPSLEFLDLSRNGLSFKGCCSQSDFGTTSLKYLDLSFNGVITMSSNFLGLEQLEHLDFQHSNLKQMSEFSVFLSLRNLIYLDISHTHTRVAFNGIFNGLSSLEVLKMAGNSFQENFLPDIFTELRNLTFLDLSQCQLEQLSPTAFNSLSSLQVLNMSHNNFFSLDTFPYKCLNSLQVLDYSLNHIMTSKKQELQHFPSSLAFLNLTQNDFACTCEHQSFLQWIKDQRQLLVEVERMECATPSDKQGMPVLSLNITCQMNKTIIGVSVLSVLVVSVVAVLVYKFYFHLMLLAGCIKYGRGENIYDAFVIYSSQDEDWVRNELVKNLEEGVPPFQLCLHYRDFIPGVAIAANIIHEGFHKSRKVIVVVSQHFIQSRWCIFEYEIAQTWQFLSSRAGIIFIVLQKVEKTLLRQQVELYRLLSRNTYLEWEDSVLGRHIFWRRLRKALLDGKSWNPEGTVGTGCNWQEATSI
T2 sequence (Q9Y6Y9 19-160): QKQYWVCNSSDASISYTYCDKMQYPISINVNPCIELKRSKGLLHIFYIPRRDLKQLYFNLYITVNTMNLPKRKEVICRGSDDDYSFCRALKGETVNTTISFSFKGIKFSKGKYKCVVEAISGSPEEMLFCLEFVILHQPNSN

SMILES | Fold Induction (hTLR9) | Fold Induction (Human TLR4) | Fold Induction (Human TLR4; listed as Ami)
CN(C)CCC=C1c2ccccc2CCc2ccccc21 [Amitriptyline] | slight inhibitory effect | slight inhibitory effect | 12
CNCCC=C1c2ccccc2CCc2ccccc21 [Nortriptyline] | slight inhibitory effect | 14 | 

— patent US11400059B2, “Treatment of pain and/or pain related symptoms associated with dysmenorrhea” (ALYRA BIOTECH PTY LTD, priority 2017, dated 2022)
